# Target: T1, N-type calcium channel α1B (Cav2.2), β3 and α2δ subunits (Homo sapiens, UniProt Q00975)
# T1 construct: expressed in transfected cells
# Experiment: Functional assay, antagonism of N-type calcium channel (FDSS calcium mobilization response to KCl depolarization)
# Type: cell-based
# Conditions: 1 μM compound; FDSS, 50 mM KCl
# Protocol: A stable cell line (HEK parent) co-expressing the α1B (Cav2.2), β3 and α2δ subunits of the N-type calcium channel subunits was used. These cells were routinely grown as monolayers in low glucose-containing Dulbecco's Modified Eagle Medium supplemented with 10% FBS, 2 mM L-glutamine, 100 I.U./mL penicillin, 100 μg/mL streptomycin, 400 μg/mL G418 and 200 μg/mL Zeocin (split ratio=1:5). Cells were maintained in 5% CO2 at 37° C. Compounds of Formula (I) were prepared as 10 mM stocks in DMSO from neat compound, if available. Otherwise, the 5 or 10 mM DMSO stock solutions provided in-house were used.
# Calcium mobilization responses to KCl depolarization were evaluated by measuring the intensity of calcium-mediated fluorescent signal in the presence of BD Calcium Assay Dye (BD Biosciences, Franklin Lakes, N.J., U.S.A.), utilizing a Functional Drug Screening System (FDSS) by Hamamatsu Corporation (Bridgewater, N.J. U.S.A.).
# Twenty-four hr prior to assay, cells were seeded in clear-base poly-D-lysine-coated 384-well plates (BD Biosciences) at a density of 5,000 cells per well in culture medium and grown overnight in 5% CO2 at 37° C. On the day of assay, growth media were removed, and cells were loaded with BD calcium assay dye (BD Biosciences) for 35 min at 37° C. under 5% CO2 and then for 25 min at room temp. Utilizing the FDSS, cells were exposed to representative compounds of Formula (I) at varying concentrations, and intracellular calcium was measured for 5 min prior to the addition of 50 mM KCl for an additional 3 min of measurement.
# IC50 values for representative compounds of Formula (I) were determined from six-point concentration-response experiments and represent the concentration of said compound required to inhibit 50% of the maximal response. Maximal fluorescence intensity (FI) achieved upon addition of 50 mM KCl was exported from the FDSS software and further analyzed using GraphPad Prism 3.02 (Graph Pad Software Inc., San Diego, Calif., U.S.A.). Data were normalized to the maximum average counts from quadruplicate wells for each condition in the presence of 50 mM KCl and to the minimum average counts in the presence of buffer. Theoretical curves were generated using nonlinear regression curve-fitting analysis of either sigmoidal concentration-response or sigmoidal concentration-response (variable slope), and the IC50 values with the best-fit curve determined by GraphPad Prism were reported.
# T1 sequence (Q00975 whole entry): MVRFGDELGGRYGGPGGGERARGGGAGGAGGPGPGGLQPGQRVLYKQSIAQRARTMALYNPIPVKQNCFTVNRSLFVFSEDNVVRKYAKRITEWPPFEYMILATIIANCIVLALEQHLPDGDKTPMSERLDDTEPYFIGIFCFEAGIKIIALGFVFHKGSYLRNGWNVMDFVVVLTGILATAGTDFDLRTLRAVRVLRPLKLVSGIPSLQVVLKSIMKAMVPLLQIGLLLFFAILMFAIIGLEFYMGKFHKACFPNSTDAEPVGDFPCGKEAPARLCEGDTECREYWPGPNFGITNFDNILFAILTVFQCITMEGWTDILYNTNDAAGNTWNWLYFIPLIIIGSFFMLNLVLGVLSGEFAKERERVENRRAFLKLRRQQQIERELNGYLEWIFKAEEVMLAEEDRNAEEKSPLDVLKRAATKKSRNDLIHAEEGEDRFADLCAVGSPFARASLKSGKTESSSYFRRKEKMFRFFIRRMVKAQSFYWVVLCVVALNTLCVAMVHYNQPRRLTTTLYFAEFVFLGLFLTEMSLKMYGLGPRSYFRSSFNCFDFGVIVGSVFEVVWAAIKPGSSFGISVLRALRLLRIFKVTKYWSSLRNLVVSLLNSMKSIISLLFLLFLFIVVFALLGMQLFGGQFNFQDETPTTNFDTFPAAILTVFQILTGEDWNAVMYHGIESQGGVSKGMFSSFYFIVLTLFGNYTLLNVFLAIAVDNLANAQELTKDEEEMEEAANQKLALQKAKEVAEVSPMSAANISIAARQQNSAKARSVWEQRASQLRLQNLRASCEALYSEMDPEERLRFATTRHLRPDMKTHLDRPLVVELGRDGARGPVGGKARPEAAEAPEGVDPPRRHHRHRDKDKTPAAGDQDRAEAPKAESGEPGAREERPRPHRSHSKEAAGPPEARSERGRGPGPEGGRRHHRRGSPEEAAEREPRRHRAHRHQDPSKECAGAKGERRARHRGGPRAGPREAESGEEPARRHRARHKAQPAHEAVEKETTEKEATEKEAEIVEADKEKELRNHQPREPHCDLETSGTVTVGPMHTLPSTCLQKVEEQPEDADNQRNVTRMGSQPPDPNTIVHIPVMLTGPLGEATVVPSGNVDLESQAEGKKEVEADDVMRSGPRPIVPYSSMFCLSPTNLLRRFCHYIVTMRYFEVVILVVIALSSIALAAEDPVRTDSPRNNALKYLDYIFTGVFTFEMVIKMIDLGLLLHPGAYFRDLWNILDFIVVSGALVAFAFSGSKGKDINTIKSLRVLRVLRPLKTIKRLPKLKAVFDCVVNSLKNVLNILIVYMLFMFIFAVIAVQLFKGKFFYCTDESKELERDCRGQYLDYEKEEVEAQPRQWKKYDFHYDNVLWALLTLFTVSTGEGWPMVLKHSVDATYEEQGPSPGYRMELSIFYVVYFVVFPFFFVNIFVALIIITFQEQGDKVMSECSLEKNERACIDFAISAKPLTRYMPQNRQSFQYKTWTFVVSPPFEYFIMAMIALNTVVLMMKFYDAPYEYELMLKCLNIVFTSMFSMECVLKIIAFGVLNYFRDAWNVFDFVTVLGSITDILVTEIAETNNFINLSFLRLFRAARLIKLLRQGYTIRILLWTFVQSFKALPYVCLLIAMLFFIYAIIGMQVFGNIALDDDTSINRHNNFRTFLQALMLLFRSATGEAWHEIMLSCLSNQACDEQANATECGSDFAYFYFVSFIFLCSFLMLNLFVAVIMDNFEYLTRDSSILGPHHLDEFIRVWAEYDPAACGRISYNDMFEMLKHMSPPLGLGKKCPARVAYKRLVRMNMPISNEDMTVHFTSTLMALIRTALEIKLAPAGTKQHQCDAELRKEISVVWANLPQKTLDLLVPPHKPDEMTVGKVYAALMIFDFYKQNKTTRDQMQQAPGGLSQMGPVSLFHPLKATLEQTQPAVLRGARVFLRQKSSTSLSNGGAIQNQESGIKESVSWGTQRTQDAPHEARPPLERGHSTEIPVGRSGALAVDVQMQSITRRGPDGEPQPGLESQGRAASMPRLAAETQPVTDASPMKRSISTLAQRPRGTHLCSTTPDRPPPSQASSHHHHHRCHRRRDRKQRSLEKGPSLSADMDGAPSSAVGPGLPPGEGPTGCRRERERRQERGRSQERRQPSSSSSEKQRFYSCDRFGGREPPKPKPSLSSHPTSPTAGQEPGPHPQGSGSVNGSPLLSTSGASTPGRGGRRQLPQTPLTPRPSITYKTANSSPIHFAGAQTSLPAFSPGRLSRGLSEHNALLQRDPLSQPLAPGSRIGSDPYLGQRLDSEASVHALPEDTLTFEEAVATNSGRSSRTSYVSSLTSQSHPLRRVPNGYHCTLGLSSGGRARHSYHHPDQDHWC
# T1 sequence (P54284 whole entry partner): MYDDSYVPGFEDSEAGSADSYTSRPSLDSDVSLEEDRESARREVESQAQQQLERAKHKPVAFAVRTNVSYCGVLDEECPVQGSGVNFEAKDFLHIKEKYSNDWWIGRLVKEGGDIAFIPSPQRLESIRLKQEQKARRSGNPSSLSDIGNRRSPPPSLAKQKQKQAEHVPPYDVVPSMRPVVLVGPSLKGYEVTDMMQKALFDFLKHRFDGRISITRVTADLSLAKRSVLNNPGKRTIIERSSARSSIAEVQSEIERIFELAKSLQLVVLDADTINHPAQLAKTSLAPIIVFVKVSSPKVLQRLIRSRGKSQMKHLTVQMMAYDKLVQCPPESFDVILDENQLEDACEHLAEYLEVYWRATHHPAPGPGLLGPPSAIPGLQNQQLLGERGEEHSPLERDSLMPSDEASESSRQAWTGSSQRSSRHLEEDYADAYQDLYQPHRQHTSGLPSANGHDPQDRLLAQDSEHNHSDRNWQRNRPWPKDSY
# T1 sequence (P54289 25-956 partner limits assumed): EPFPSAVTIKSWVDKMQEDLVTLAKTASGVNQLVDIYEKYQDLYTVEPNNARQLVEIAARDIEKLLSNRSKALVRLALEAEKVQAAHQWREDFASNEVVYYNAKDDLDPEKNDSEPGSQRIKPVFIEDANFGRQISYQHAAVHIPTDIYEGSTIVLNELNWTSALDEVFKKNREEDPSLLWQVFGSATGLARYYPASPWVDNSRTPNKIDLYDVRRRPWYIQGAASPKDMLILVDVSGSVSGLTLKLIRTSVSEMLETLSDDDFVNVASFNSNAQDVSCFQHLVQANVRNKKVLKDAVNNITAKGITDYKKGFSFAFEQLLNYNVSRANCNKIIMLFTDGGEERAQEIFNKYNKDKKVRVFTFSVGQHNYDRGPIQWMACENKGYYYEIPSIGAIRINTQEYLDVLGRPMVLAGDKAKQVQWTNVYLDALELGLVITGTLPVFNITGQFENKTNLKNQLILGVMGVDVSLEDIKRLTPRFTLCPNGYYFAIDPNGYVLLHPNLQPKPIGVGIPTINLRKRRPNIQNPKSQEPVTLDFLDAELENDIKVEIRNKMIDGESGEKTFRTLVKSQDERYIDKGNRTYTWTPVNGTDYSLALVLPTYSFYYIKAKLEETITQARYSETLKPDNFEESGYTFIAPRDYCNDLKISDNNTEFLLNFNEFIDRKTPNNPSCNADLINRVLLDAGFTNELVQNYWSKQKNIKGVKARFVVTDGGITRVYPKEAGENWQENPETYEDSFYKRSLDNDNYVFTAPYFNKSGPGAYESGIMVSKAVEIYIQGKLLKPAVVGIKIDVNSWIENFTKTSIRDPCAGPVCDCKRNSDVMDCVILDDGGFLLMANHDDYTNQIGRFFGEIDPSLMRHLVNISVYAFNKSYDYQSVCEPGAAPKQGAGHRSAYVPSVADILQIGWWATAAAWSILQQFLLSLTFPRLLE
# T1 sequence (P54289 957-1103 partner limits assumed): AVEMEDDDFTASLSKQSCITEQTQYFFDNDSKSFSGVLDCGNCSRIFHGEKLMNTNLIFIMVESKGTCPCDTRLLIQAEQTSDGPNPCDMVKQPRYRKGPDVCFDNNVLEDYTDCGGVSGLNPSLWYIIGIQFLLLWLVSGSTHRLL
row,Structure (SMILES),inhibition at 1 µM
1,"CCc1ccccc1-n1nc2c(c1-c1ccc(Cl)cc1)CN(C(=O)CNS(=O)(=O)C(F)(F)F)C2 [Cpd 13, N-{2-[3-(4-Chlorophenyl)-2-(2-ethylphenyl)-2,6-dihydropyrrolo[3,4-c]pyrazol-5(4H)-yl]-2-oxoethyl}-1,1,1-trifluoromethanesulfonamide]",59%
2,"CC(C)(C)OC(=O)N1Cc2nn(-c3ccccc3C(F)(F)F)c(-c3ccc(Cl)cc3)c2C1 [Cpd 14, tert-Butyl 3-(4-chlorophenyl)-2-[2-(trifluoromethyl)phenyl]-2,6-dihydropyrrolo[3,4-c]pyrazole-5(4H)-carboxylate]",60%
3,"N#Cc1cccc(N2Cc3nn(-c4ccccc4OC(F)(F)F)c(-c4ccc(Cl)cc4)c3C2)c1 [Cpd 23, 3-[3-(4-Chlorophenyl)-2-[2-(trifluoromethoxy)phenyl]-2,6-dihydropyrrolo[3,4-c]pyrazol-5(4H)-yl]benzonitrile]",52%
4,"COC(=O)c1ccc(N2Cc3nn(-c4ccccc4OC(F)(F)F)c(-c4ccc(Cl)cc4)c3C2)cc1 [Cpd 24, Methyl 4-[3-(4-chlorophenyl)-2-[2-(trifluoromethoxy)phenyl]-2,6-dihydropyrrolo[3,4-c]pyrazol-5(4H)-yl]benzoate]",64%
5,"O=S(=O)(NCCN1CCOCC1)c1ccc(N2Cc3nn(-c4ccccc4OC(F)(F)F)c(-c4ccc(Cl)cc4)c3C2)cc1 [Cpd 26, 4-[3-(4-Chlorophenyl)-2-[2-(trifluoromethoxy)phenyl]-2,6-dihydropyrrolo[3,4-c]pyrazol-5(4H)-yl]-N-(2-morpholin-4-ylethyl)benzenesulfonamide]",57%

# Other lines, results leading:
row,inhibition at 1 µM,Structure (SMILES)
1,58%,"CCc1ccccc1-n1nc2c(c1-c1ccc(Cl)cc1)CN(C(=O)c1ccccn1)C2 [Cpd 7, 3-(4-Chlorophenyl)-2-(2-ethylphenyl)-5-(pyridin-2-ylcarbonyl)-2,4,5,6-tetrahydropyrrolo[3,4-c]pyrazole]"
2,63%,"CCc1ccccc1-n1nc2c(c1-c1ccc(Cl)cc1)CN(C(=O)c1cc(C)on1)C2 [Cpd 9, 3-(4-Chlorophenyl)-2-(2-ethylphenyl)-5-[(5-methylisoxazol-3-yl)carbonyl]-2,4,5,6-tetrahydropyrrolo[3,4-c]pyrazole]"
3,57%,"N#Cc1ccc(N2Cc3nn(-c4ccccc4OC(F)(F)F)c(-c4ccc(Cl)cc4)c3C2)cc1 [Cpd 25, 4-[3-(4-Chlorophenyl)-2-[2-(trifluoromethoxy)phenyl]-2,6-dihydropyrrolo[3,4-c]pyrazol-5(4H)-yl]benzonitrile]"

# Same assay, conditions: HEK stable cell line; 50 mM KCl depolarization; six-point concentration-response
row,Structure (SMILES),IC50
1,"CCc1ccccc1-n1nc2c(c1-c1ccc(Cl)cc1)CN(C(=O)OC(C)(C)C)C2 [Cpd 1, tert-Butyl 3-(4-chlorophenyl)-2-(2-ethylphenyl)-2,6-dihydropyrrolo[3,4-c]pyrazole-5(4H)-carboxylate]",180 nM
2,"CCc1ccccc1-n1nc2c(c1-c1ccc(Cl)cc1)CN(S(=O)(=O)C(F)(F)F)C2 [Cpd 3, 3-(4-Chlorophenyl)-2-(2-ethylphenyl)-5-[(trifluoromethyl)sulfonyl]-2,4,5,6-tetrahydropyrrolo[3,4-c]pyrazole]",150 nM
3,"CCc1ccccc1-n1nc2c(c1-c1ccc(Cl)cc1)CN(C(=O)CNS(C)(=O)=O)C2 [Cpd 12, N-{2-[3-(4-Chlorophenyl)-2-(2-ethylphenyl)-2,6-dihydropyrrolo[3,4-c]pyrazol-5(4H)-yl]-2-oxoethyl}methanesulfonamide]",520 nM
4,"CC(C)S(=O)(=O)N1Cc2nn(-c3ccccc3C(F)(F)F)c(-c3ccc(Cl)cc3)c2C1 [Cpd 16, 3-(4-Chlorophenyl)-5-[(1-methylethyl)sulfonyl]-2-[2-(trifluoromethyl)phenyl]-2,4,5,6-tetrahydropyrrolo[3,4-c]pyrazole]",160 nM
5,"Cc1ccc(S(=O)(=O)N2Cc3nn(-c4ccccc4C(F)(F)F)c(-c4ccc(Cl)cc4)c3C2)cc1 [Cpd 17, 3-(4-Chlorophenyl)-5-[(4-methylphenyl)sulfonyl]-2-[2-(trifluoromethyl)phenyl]-2,4,5,6-tetrahydropyrrolo[3,4-c]pyrazole]",300 nM
6,"COc1ccccc1-n1nc2c(c1-c1ccc(Cl)cc1)CN(C(=O)CNC(=O)OC(C)(C)C)C2 [Cpd 29, tert-Butyl{2-[3-(4-chlorophenyl)-2-(2-methoxyphenyl)-2,6-dihydropyrrolo[3,4-c]pyrazol-5(4H)-yl]-2-oxoethyl}carbamate]",180 nM
7,"COc1ccccc1-n1nc2c(c1-c1ccc(Cl)cc1)CN(S(=O)(=O)CCN1C(=O)c3ccccc3C1=O)C2 [Cpd 38, 2-(2-{[3-(4-Chlorophenyl)-2-(2-methoxyphenyl)-2,6-dihydropyrrolo[3,4-c]pyrazol-5(4H)-yl]sulfonyl}ethyl)-1H-isoindole-1,3(2H)-dione]",53 nM
8,"COc1ccccc1-n1nc2c(c1-c1ccc(Cl)cc1)CN(S(=O)(=O)CCN1C(=O)CCC1=O)C2 [Cpd 42, 1-(2-{[3-(4-Chlorophenyl)-2-(2-methoxyphenyl)-2,6-dihydropyrrolo[3,4-c]pyrazol-5(4H)-yl]sulfonyl}ethyl)pyrrolidine-2,5-dione]",48 nM
9,"COc1ccccc1-n1nc2c(c1-c1ccc(Cl)cc1)CN(S(=O)(=O)CCOc1ccccc1)C2 [Cpd 43, 3-(4-Chlorophenyl)-2-(2-methoxyphenyl)-5-[(2-phenoxyethyl)sulfonyl]-2,4,5,6-tetrahydropyrrolo[3,4-c]pyrazole]",100 nM
10,"CCOc1ccccc1-n1nc2c(c1-c1ccc(Cl)cc1)CN(S(=O)(=O)Cc1ccccc1)C2 [Cpd 53, 5-(Benzylsulfonyl)-3-(4-chlorophenyl)-2-(2-ethoxyphenyl)-2,4,5,6-tetrahydropyrrolo[3,4-c]pyrazole]",7 nM

# Continued, values first:
row,IC50,Structure (SMILES)
1,200 nM,"CCc1ccccc1-n1nc2c(c1-c1ccc(Cl)cc1)CN(C(=O)c1cccnc1)C2 [Cpd 4, 3-(4-Chlorophenyl)-2-(2-ethylphenyl)-5-(pyridin-3-ylcarbonyl)-2,4,5,6-tetrahydropyrrolo[3,4-c]pyrazole]"
2,600 nM,"CCc1ccccc1-n1nc2c(c1-c1ccc(Cl)cc1)CN(C(=O)c1ccco1)C2 [Cpd 8, 3-(4-Chlorophenyl)-2-(2-ethylphenyl)-5-(furan-2-ylcarbonyl)-2,4,5,6-tetrahydropyrrolo[3,4-c]pyrazole]"
3,280 nM,"CCc1ccccc1-n1nc2c(c1-c1ccc(Cl)cc1)CN(C(=O)COC)C2 [Cpd 10, 3-(4-Chlorophenyl)-2-(2-ethylphenyl)-5-(methoxyacetyl)-2,4,5,6-tetrahydropyrrolo[3,4-c]pyrazole]"
4,280 nM,"CS(=O)(=O)N1Cc2nn(-c3ccccc3C(F)(F)F)c(-c3ccc(Cl)cc3)c2C1 [Cpd 15, 3-(4-Chlorophenyl)-5-(methylsulfonyl)-2-[2-(trifluoromethyl)phenyl]-2,4,5,6-tetrahydropyrrolo[3,4-c]pyrazole]"
5,480 nM,"CC(C)(C)OC(=O)NCC(=O)N1Cc2nn(-c3ccccc3C(F)(F)F)c(-c3ccc(Cl)cc3)c2C1 [Cpd 18, tert-Butyl{2-[3-(4-chlorophenyl)-2-[2-(trifluoromethyl)phenyl]-2,6-dihydropyrrolo[3,4-c]pyrazol-5(4H)-yl]-2-oxoethyl}carbamate]"
6,300 nM,"CC(C)(C)OC(=O)N1Cc2nn(-c3ccccc3OC(F)(F)F)c(-c3ccc(Cl)cc3)c2C1 [Cpd 19, tert-Butyl 3-(4-chlorophenyl)-2-[2-(trifluoromethoxy)phenyl]-2,6-dihydropyrrolo[3,4-c]pyrazole-5(4H)-carboxylate]"
7,300 nM,"O=C(N1Cc2nn(-c3ccccc3OC(F)(F)F)c(-c3ccc(Cl)cc3)c2C1)C(F)(F)F [Cpd 21, 3-(4-Chlorophenyl)-5-(trifluoroacetyl)-2-[2-(trifluoromethoxy)phenyl]-2,4,5,6-tetrahydropyrrolo[3,4-c]pyrazole]"
8,170 nM,"COc1ccccc1-n1nc2c(c1-c1ccc(Cl)cc1)CN(C(=O)N(C)C)C2 [Cpd 34, 3-(4-Chlorophenyl)-2-(2-methoxyphenyl)-N,N-dimethyl-2,6-dihydropyrrolo[3,4-c]pyrazole-5(4H)-carboxamide]"
9,27 nM,"COc1ccccc1-n1nc2c(c1-c1ccc(Cl)cc1)CN(S(=O)(=O)Cc1ccccc1)C2 [Cpd 39, 5-(Benzylsulfonyl)-3-(4-chlorophenyl)-2-(2-methoxyphenyl)-2,4,5,6-tetrahydropyrrolo[3,4-c]pyrazole]"
10,77 nM,"O=S1(=O)CCC(S(=O)(=O)N2Cc3nn(-c4ccccc4OC(F)(F)F)c(-c4ccc(Cl)cc4)c3C2)C1 (stereo not shown) [Cpd 48, 3-(4-Chlorophenyl)-5-[(1,1-dioxidotetrahydrothiophen-3-yl)sulfonyl]-2-[2-(trifluoromethoxy)phenyl]-2,4,5,6-tetrahydropyrrolo[3,4-c]pyrazole]"

# From patent US8846949B2, “Pyrrolopyrazoles as N-type calcium channel blockers” (Janssen Pharmaceutica NV, priority 2012, dated 2014)
